Assay results: patent publication US20030207813A1, “Retroviral protease inhibitor combinations” (priority 1995, published 2003)
Values after ≈ are worked out from the molar mass of the structure shown. Where two headings read alike, the source gives them in different places.

Tested on: RFR (resistant strains selected from RF against Example 1)
Experiment: CEM-T4 cell infection assay, reverse transcriptase readout, resistant isolate RFR
Type: cell-based, HIV-1
Details: Human immunodeficiency virus 1, CEM-T4, 168 h, 7 days, read-out: Virus Isolate (EC50 ng/mL) RFR
Text: RF represents the HIV-1 strain HIV-LRF and RFR represents a mixture of resistant strains obtained by selection of RF against the compound of Example 1. RFR comprises a mixture of viral strains having protease genotypes of G48V (14/40 clones); G48V, V82A (18/40 clones); G48V, L90S (2/40 clones); G48V, 154T, V82A (1/40 clones); G48M (1/40 clones); G48V, Q61H (1/40 clones); V13I, G48V (1/40 clones); G48V, F53L, V82A (1/40 clones); and G48V, V82A, C95Y (1/40 clones). RFR2 represents a mixture of resistant strains obtained by cloning RFR by three rounds of growth at limiting dilution. RFR2 comprises a mixture of viral strains having protease genotypes of G48V, V82A (13/15 clones); G17E, G48V, V82A (1/15 clones); and G48V, V82A, N37D, N88D (1/15 clones). RFRR represents a mixture of resistant strains obtained by selection of RF against the compounds of Examples 1 and 2 and then cloning by three rounds of growth at limiting dilution. RFRR comprises a mixture of viral strains having protease genotypes of G48V, 154T, L63P, V82A (7/9 clones); G48V, 154T, L63P, V82A, N88S (1/9 clones); and G48V, 154T, L63P, G73M, V82A (1/9 clones). SF162 represents the HIV-1 strain SF-162 and SF162R represents a mixture of resistant strains obtained by selection of SF162 against the compound of Example 1. SF162R comprises a mixture of viral strains having protease genotypes of M461, F53L, L63P, A71V, N88D (2/3 clones); and M46I, F53L, L63P, A71V, N88D, Q92R (1/3 clones). 89-959 represents the HIV-1 strain 89-959 and 89-959R represents a mixture of resistant strains obtained by selection of 89-959 against the compound of Example 2. 89-959R comprises a mixture of viral strains having protease genotypes of N88S (4/5 clones); and D25N, T26A, D30N, D37N, R41K, G73D, R87K, N88S (1/4 clones). NL4 represents the HIV-1 strain HIV-1NL4-3. NL4(G48V) represents a strain having a synthetically generated site-directed mutation in the protease from glycine to valine at amino acid position number 48. NL4(I84V) represents a strain having a synthetically generated site-directed mutation in the protease from isoleucine to valine at amino acid position number 84. NL4(R8Q,M46I) represents a strain having synthetically generated site-directed mutations in the protease from arginine to glutamine at amino acid position number 8 and methionine to isoleucine at amino acid position number 46. NL4(P22-538) represents a mixture of resistant strains obtained by selection of HIV-1NL4-3 against the compound of Example 10 after 22 passages comprising protease genotypes M46I, L63P, A71V, V82F, I84V (4/10); M46I, L63P, V82F, I84V (3/10); and M46I, A71V, V82F, I84V (3/10). NL4(P37-538) represents resistant strains obtained by selection of HIV-1NL4-3 against the compound of Example 10 after 37 passages comprising protease genotype M46I, L63P, A71V, 184A. NL4(538/524) represents resistant strains obtained by selection of NL4(P22-538) against the compound of Example 5 after 24 passages comprising protease genotype M46I, L63P, A71V, 184A. NL4(538/P7-AG) represents a mixture of resistant strains obtained by selection of NL4(P22-538) against the compound of Example 12 after 7 passages comprising protease genotypes M46I, L63P, A71V, 184A; and V321, V82I. NL4(538/P24-AG) represents resistant strains obtained by selection of NL4(P22-538) against the compound of Example 12 after 24 passages comprising protease genotype M46I, L63P, A71V, 184A. NLA(P19-003) represents resistant strains obtained by selection of HIV-1^NL4-3 against the compound of Example 9 after 19 passages comprising protease genotype R8K, M46I. NL4(P34-003) represents resistant strains obtained by selection of HIV-1^NL4-3 against the compound of Example 9 after 34 passages comprising protease genotype R8K, M46I, L63P, A71V, L90M.
The viral isolate resistance results summarized in Tables 4-6 were generated according to the following assay procedure or minor modifications thereof. Assays are performed in 96-well tissue culture plates. […]

## CC(C)CN(C[C@@H](O)[C@H](Cc1ccccc1)NC(=O)[C@H](CC(N)=O)NC(=O)c1ccc2ccccc2n1)C(=O)NC(C)(C)C (relative stereo) [Example 1, [1S-[1R*(R*),2S*]]-N^1-[3-[[[(1,1-dimethylethyl)amino]carbonyl])2-methylpropyl)amino]-2-hydroxy-1-(phenylmethyl)propyl]-2-[(2-quinolinylcarbonyl)amino]-butanediamide]
Table 4, CEM-T4 cells
  EC50: 223 ng/mL (≈ 0.369 µM)
Table 5, CEM-T4 cells
  EC50: 394 ng/mL (≈ 0.652 µM)

## CC(C)CCN(C[C@@H](O)[C@H](Cc1ccccc1)NC(=O)[C@H](CC(N)=O)NC(=O)c1ccc2ccccc2n1)C(=O)NC(C)(C)C (relative stereo) [Example 7, [1S-[1R*(R*),2S*]]-N^1-[3-[[[(1,1-dimethylethyl)amino]carbonyl](3-methylbutyl)amino]-2-hydroxy-1-(phenylmethyl)propyl]-2-[(2-quinolinylcarbonyl)amino]-butanediamide]
Table 5, CEM-T4 cells
  EC50: 78 ng/mL (≈ 0.126 µM)

## CC(C)(C)NC(=O)[C@@H]1CC2CCCC[C@@H]2CN1C[C@@H](O)[C@H](Cc1ccccc1)NC(=O)[C@H](CC(N)=O)NC(=O)c1ccc2ccccc2n1 (stereo in doubt) [Example 6, N-tert-Butyl decahydro-2-[2(R)-hydroxy-4-phenyl-3(S)-[[N-(2-quinolylcarbonyl)-L-asparaginyl]amino]butyl]-(4aR,8aS)-isoquinoline-3(S)-carboxamide]
Table 4, CEM-T4 cells
  EC50: 15 ng/mL (≈ 0.0224 µM)

## CNCC(=O)N[C@H](C(=O)N[C@@H](Cc1ccccc1)[C@H](O)CN(CCC(C)C)C(=O)NC(C)(C)C)C(C)(C)C [Example 2, (2R,3S)-3-(N-methylaminoacetyl-L-tert-butylglycinyl)amino-1-(N-isoamyl-N-(tert-butylcarbamoyl))amino-4-phenyl-2-butanol]
Table 4, CEM-T4 cells
  EC50: 8 ng/mL (≈ 0.015 µM)

## CC(C)(C)NC(=O)[C@@H]1CN(Cc2cccnc2)CCN1C[C@@H](O)C[C@@H](Cc1ccccc1)C(=O)N[C@H]1c2ccccc2C[C@H]1O [Example 5, N-(2(R)-Hydroxy-1(S)-indanyl)-2(R)-phenylmethyl-4(S)-hydroxy-5-(1-(4-(3-pyridylmethyl)-2(S)-N′-(t-butylcarboxamido)-piperazinyl))-pentaneamide]
Table 4, CEM-T4 cells
  EC50: 7 ng/mL (≈ 0.0114 µM)

## CC(C)CN(C[C@@H](O)[C@H](Cc1ccccc1)NC(=O)[C@H](CC(N)=O)NC(=O)c1ccc2ccccc2n1)S(=O)(=O)NC(C)(C)C [Example 8, N-[3-[N^2-[N^1-(1,1-dimethylethyl)aminosulfonyl]-N^2-(2-methylpropyl)amino]-2R-hydroxy-1S-(phenylmethyl)propyl]-2S-[(2-quinolinylcarbonyl)amino]butanediamide]
Table 5, CEM-T4 cells
  EC50: 1 ng/mL (≈ 0.00156 µM)
